Like-named read-outs stand apart in the source and are kept apart here.
Tests used:
Format in all cases: in vivo
[1] = test system: Tetranychus urticae (spider mites - adults); assay: Mortality test on Tetranychus urticae adults (TUa), contact; conditions: topical, 72 h, read-out: TUa grading of mortality; for mortality at 100 ppm: rate 100 ppm
Description: (§1) The activity of the Product was determined using a variety of insect pests. The Product was used in the form of liquid preparations containing from 100 to 500 parts per million (ppm) by weight of the Product. The preparations were made by dissolving the Product in acetone and diluting the solutions with water containing 0.1% by weight of a wetting agent sold under the trade name "SYNPERONIC" NX until the liquid preparations contained the required concentration of the Product. "SYNPERONIC" is a Registered Trade Mark.
(§2) The test procedure adopted with regard to each pest was basically the same and comprised supporting a number of the pests on a medium which was usually a host plant or a foodstuff on which the pests feed, and treating either or both the pests and the medium with the preparations. The mortality of the pests was then assessed at periods usually varying from one to seven days after the treatment.
(§3) The results of the tests are given in Table III for each of the Products, at the rate in parts per million given in the second column, as a grading of mortality designated as A, B or C wherein A indicates 80-100% mortality or knockdown, B indicates 50-79% mortality or knockdown and C indicates less than 50% mortality or knockdown.
(§4) In Table III the pest organism used is designated by a letter code and the pests species, the support medium or food, and the type and duration of test is given in Table II.
(spider mites - adults)

[2] = test system: Tetranychus urticae (spider mites - ova); assay: Mortality test on Tetranychus urticae ova (TUe), contact; conditions: topical, 144 h, read-out: TUe grading of mortality; for mortality at 100 ppm: rate 100 ppm
Description: as §1, §2, §3, §4

Myzus persicae (aphids) = assay: Mortality test on Myzus persicae (MP), contact; conditions: topical, 72 h, read-out: MP grading of mortality; for mortality at 100 ppm: rate 100 ppm
Description: as §1, §2, §3, §4

[3] = test system: Musca domestica (houseflies - adults); assay: Mortality test on Musca domestica (MD), contact; conditions: topical, 24 h, read-out: MD grading of mortality; for mortality at 100 ppm: rate 100 ppm
Description: as §1, §2, §3, §4

[4] = test system: Blattella germanica (cockroach nymphs); assay: Mortality test on Blattella germanica (BG), residual; conditions: 72 h, read-out: BG grading of mortality
Description: as §1, §2, §3, §4

[5] = test system: Heliothis virescens (tobacco budworm - larvae); assay: Mortality test on Heliothis virescens (HV), residual; conditions: 72 h, read-out: HV grading of mortality; for mortality at 100 ppm: rate 100 ppm
Description: as §1, §2, §3, §4
(tobacco budworm - larvae)

[6] = test system: Spodoptera exigua (lesser army worm - larvae); assay: Mortality test on Spodoptera exigua (SP), residual; conditions: 72 h, read-out: SP grading of mortality
Description: as §1, §2, §3, §4
(lesser army worm - larvae)

[7] = test system: Diabrotica balteata (rootworm larvae); assay: Mortality test on Diabrotica balteata (DB), residual; conditions: 72 h, read-out: DB grading of mortality
Description: as §1, §2, §3, §4

[8] = test system: Nephotettix cincticeps (green leaf hopper - nymphs); assay: Mortality test on Nephotettix cincticeps (NC), contact; conditions: topical, 72 h, rice plant, 3 days, read-out: NC grading of mortality; for mortality at 100 ppm: rate 100 ppm; for mortality at 500 ppm: rate 500 ppm
Description: as §1, §2, §3, §4
NC Nephotettix cincticeps

[9] = French bean leaf, contact, 3 days
[10] = French bean leaf, contact, 6 days
[11] = Chinese cabbage leaf, contact, 3 days
[12] = cotton wool/sugar, contact, 1 day
[13] = rate 500 ppm, French bean leaf, contact, 6 days
[14] = rate 500 ppm, Chinese cabbage leaf, contact, 3 days
[15] = rate 500 ppm, cotton wool/sugar, contact, 1 day
[16] = rate 500 ppm, cotton leaf, residual, 3 days
[17] = rate 500 ppm, French bean leaf, contact, 3 days
[18] = rate 500 ppm, plastic pot, residual, 3 days
[19] = rate 500 ppm, filter paper/maize seed, residual, 3 days

| Compound | mortality at 500 ppm [2, 13] [%] | mortality at 500 ppm (Myzus persicae (aphids); [14]) [%] | mortality at 500 ppm [3, 15] [%] | mortality at 500 ppm [4] [%] | mortality at 500 ppm [5, 16] [%] | mortality at 500 ppm ([6]; in Gossypium hirsutum) [%] | mortality at 500 ppm ([7]; in Zea mays) [%] | mortality at 500 ppm [1, 17] [%] | further results |
| --- | --- | --- | --- | --- | --- | --- | --- | --- | --- |
| CC1(C)C(C=C(F)F)C1C(=O)OCc1ccc(F)c(Cc2ccccc2)c1 (racemic) [III] |  |  |  |  |  |  |  |  | mortality at 100 ppm [1, 9]: 50 to 79%; mortality at 100 ppm [2, 10]: < 50%; mortality at 100 ppm (Myzus persicae (aphids); [11]): 80 to 100%; mortality at 100 ppm [3, 12]: 80 to 100%; mortality at 100 ppm [4]: < 50%; mortality at 100 ppm ([5]; cotton leaf, residual, 3 days): 80 to 100%; mortality at 100 ppm ([6]; in Gossypium hirsutum): 80 to 100%; mortality at 100 ppm ([7]; in Zea mays): 80 to 100% |
| CC1(C)C(C=C(Br)Br)C1C(=O)OCc1ccc(F)c(Cc2ccccc2)c1 (racemic) [X] | < 50 | 80 to 100 | 80 to 100 | 80 to 100 | 80 to 100 | 80 to 100 | 80 to 100 |  |  |
| CC1(C)[C@H](C(=O)OC(C#N)c2ccc(F)c(Cc3ccccc3)c2)[C@@H]1/C=C(\Cl)C(F)(F)F (relative stereo) [II] | 80 to 100 | 80 to 100 | 80 to 100 | 80 to 100 | 80 to 100 | 80 to 100 | 80 to 100 | 80 to 100 |  |
| CC1(C)[C@H](C=C(Cl)Cl)[C@H]1C(=O)OCc1ccc(F)c(Cc2ccccc2)c1 (relative stereo) [IV] |  |  |  |  |  |  |  |  | mortality at 100 ppm [1, 9]: < 50%; mortality at 100 ppm [2, 10]: < 50%; mortality at 100 ppm (Myzus persicae (aphids); [11]): 80 to 100%; mortality at 100 ppm [8]: 80 to 100%; mortality at 100 ppm [3, 12]: 80 to 100%; mortality at 100 ppm [4]: < 50%; mortality at 100 ppm ([5]; cotton leaf, residual, 3 days): 80 to 100%; mortality at 100 ppm ([6]; in Gossypium hirsutum): 80 to 100%; mortality at 100 ppm ([7]; in Zea mays): 80 to 100% |
| CC1(C)[C@H](C=C(C(F)(F)F)C(F)(F)F)[C@H]1C(=O)OCc1ccc(F)c(Cc2ccccc2)c1 (relative stereo) [IX] | < 50 | 80 to 100 | 80 to 100 | 80 to 100 | 80 to 100 | 80 to 100 | 80 to 100 | 80 to 100 |  |
| CC1(C)[C@H](/C=C(\Cl)C(F)(F)F)[C@@H]1C(=O)OCc1ccc(F)c(Cc2ccccc2)c1 (relative stereo) [I] | 80 to 100 | 80 to 100 | 80 to 100 | 80 to 100 | 80 to 100 | 80 to 100 | 80 to 100 | 80 to 100 |  |
| CC(C)(C)c1ncc([C@@H]2[C@@H](C(=O)OCc3ccc(F)c(Cc4ccccc4)c3)C2(C)C)cn1 (relative stereo) [XI] |  |  |  |  |  |  |  |  | mortality at 500 ppm [1]: 80 to 100%; mortality at 500 ppm ([2]; in Phaseolus vulgaris): 80 to 100%; mortality at 500 ppm (Myzus persicae (aphids); in Brassica rapa): 80 to 100%; mortality at 500 ppm [3]: 50 to 79%; mortality at 500 ppm [4, 18]: < 50%; mortality at 500 ppm ([5]; in Gossypium hirsutum): 80 to 100%; mortality at 500 ppm [6, 16]: 80 to 100%; mortality at 500 ppm [7, 19]: 80 to 100% |
| CC(C)=CC1C(C(=O)OCc2ccc(F)c(Cc3ccccc3)c2)C1(C)C (centres unmarked) [VIII] | < 50 | 80 to 100 | 80 to 100 | < 50 | 80 to 100 | 80 to 100 | 80 to 100 | < 50 |  |
| CC1(C)C(C(=O)OCc2ccc(F)c(Cc3ccccc3)c2)C1(C)C [VII] | < 50 | 80 to 100 | 80 to 100 |  | 80 to 100 |  |  |  | mortality at 500 ppm [4, 18]: 80 to 100%; mortality at 500 ppm [6, 16]: < 50%; mortality at 500 ppm [7, 19]: 80 to 100% |
| CC1(C)[C@H](C(=O)OC(C#N)c2ccc(F)c(Cc3ccccc3)c2)[C@@H]1/C=C(\Cl)C(F)(F)F (some centres unmarked) [VI] |  |  |  |  |  |  |  |  | mortality at 100 ppm [1, 9]: 80 to 100%; mortality at 100 ppm [2, 10]: < 50%; mortality at 100 ppm (Myzus persicae (aphids); [11]): 80 to 100%; mortality at 100 ppm [8]: 80 to 100%; mortality at 100 ppm [3, 12]: 80 to 100%; mortality at 100 ppm [4]: 80 to 100%; mortality at 100 ppm ([5]; cotton leaf, residual, 3 days): 80 to 100%; mortality at 100 ppm ([6]; in Gossypium hirsutum): 80 to 100%; mortality at 100 ppm ([7]; in Zea mays): 80 to 100% |
| CC1(C)[C@H](C(=O)OCc2ccc(F)c(Cc3ccccc3)c2)[C@@H]1/C=C(\Cl)C(F)(F)F [V] | 80 to 100 | 80 to 100 | 80 to 100 |  | 80 to 100 | 80 to 100 | 80 to 100 | 80 to 100 | mortality at 500 ppm [8]: 80 to 100% |
| CC(OC(=O)C1C(C=C(Cl)C(F)(F)F)C1(C)C)c1ccc(F)c(Cc2ccccc2)c1 (centres unmarked) [XIII] |  | 80 to 100 | 80 to 100 | 80 to 100 | 80 to 100 | 80 to 100 | 80 to 100 | 80 to 100 | mortality at 500 ppm [8]: 80 to 100% |
| CC(C)(C)c1ncc(C2C(C(=O)OC(C#N)c3ccc(F)c(Cc4ccccc4)c3)C2(C)C)cn1 (centres unmarked) [XII] |  |  |  |  |  |  |  |  | mortality at 500 ppm [1]: 80 to 100%; mortality at 500 ppm ([2]; in Phaseolus vulgaris): 50 to 79%; mortality at 500 ppm (Myzus persicae (aphids); in Brassica rapa): 50 to 79%; mortality at 500 ppm [3]: < 50%; mortality at 500 ppm [4, 18]: < 50%; mortality at 500 ppm ([5]; in Gossypium hirsutum): < 50%; mortality at 500 ppm [6, 16]: < 50%; mortality at 500 ppm [7, 19]: 80 to 100% |

Reference: US4902814A, “Fluorobenzyl esters” (Imperial Chemical Industries PLC, priority 1986, dated 1990)
